Here are results for five molecules from US9101613B2, “Methods for treating neurological disease” (Neurim Pharmaceuticals (1991) Ltd., priority 2006, dated 2015).

Like-named read-outs stand apart in the source and are kept apart here.

For assay [1], the system named is 3T3-L1 adipocytes. The experiment in a line: 2-[3H]-deoxy-d-glucose uptake in FFA-treated 3T3-L1 adipocyte model. The format is cell-based. The note with it: Insulin 20 nM + FFA 300 μM (3 h) + substance 10 nM. The method, then:
Adipocytes were glucose-starved for 1 h in Hepes-salt buffer containing 2% FFA-free BSA. FFA (free fatty acids) were then added to the cells at the indicated concentrations (300 μM) for the indicated times (3 h). 10 min before the end of the FFA treatment, the cells were stimulated with insulin (20 nM)/melatonin (10 nM)/test compounds (10 nM) at 37° C. 2-[^3H]-deoxy-d-glucose at 1 μCi/mL and 0.1 mM unlabeled 2-deoxyglucose in KRP-HEPES buffer was added and cells were incubated for 10 min at room temperature. Non-specific glucose uptake was measured by parallel incubations in the presence of 10 μM cytochalasin B, which blocks transporter-mediated glucose uptake, and was subtracted from total uptake in each assay. Cells were then washed three times with ice-cold phosphate buffered saline (PBS) and solubilized in 1M NaOH for 20 minutes. The sample was then counted using a scintillation counter. 2-[^3H]-deoxy-d-glucose uptake was assayed in triplicates for each condition in at least 3 independent experiments. 2-[^3H]-deoxy-d-glucose uptake (counts per minute-cpm) are presented as mean+SE of triplicates in a representative experiment or results of three independent experiments. ANOVA test was used with significance of P<0.05 (Table 7).

Assay [2] has as its target T1, 5-HT2B receptor (Homo sapiens, UniProt P41595).
T1 construct: expressed in transfected cells; host or cells: CHO-K1
The assay can be described thus: Serotonin receptor binding, [3H] LSD, CHO-K1 membranes. The method, then: (§1) Aliquots of suspended membranes of human recombinant CHO-K1 cells stably expressing human 5-HT1A, 5-HT2A, 5-HT1B, 5-HT2B, 5-HT2C, 5-HT4, 5-HT6 or 5-HT7 receptors were pre-incubated at 25° C. with 1.5 nM [^3H] 8-OH-DPAT (5-HT1A), 1.5 nM [^3H] Ketanserin (5-HT2A), 0.01 nM [^125I] Cyanopindolol (5-HT1B), 1 nM [^3H] Mesulergine (5-HT2c), 0.7 nM [^3H] GR-113808 (5-HT4) or at 37° C. 1.2 nM [^3H] LSD (5-HT2B, 5-HT6 and 5-HT7) in buffer (50 mM Tris-HCl, pH 7.7) alone or in the presence of 1 nM, 10 nM, 0.1 μM, 1 μM, and 10 μM of N-[2-(5-methoxy-indol-3-yl)-ethyl]-commenamide, N-[2-(5-methoxy-indol-3-yl)-ethyl]-coumalylamide, N-[2-(5-methoxy-indol-3-yl)-ethyl]-comanilamide, N-[2-(5-methoxy-indol-3-yl)-ethyl]-2-methoxy-commenamide or N-[2-(5-methoxy-indol-3-yl)-ethyl]-chelidonamide for 60 minutes. The binding reaction was terminated and washed with 4 ml ice-cold 50 mM Tris-HCl buffer by vacuum filtration. Membranes were then collected, and the filters containing the bound ligands were assayed for the amount of radioactivity in a b-counter. Non-specific binding was evaluated using a reaction with 10 μM metergoline (5-HT1A), 1 μM mianserin (5-HT2A and 5-HT2c) or 10 μM serotonin (5-HT1B, 5-HT2B, 5-HT4, 5-HT6 and 5-HT7).

The target in assay [3] is T2, 5-HT1B receptor (Homo sapiens, UniProt P28222).
T2 construct: expressed in transfected cells; host or cells: CHO-K1
T2 sequence (P28222 whole entry): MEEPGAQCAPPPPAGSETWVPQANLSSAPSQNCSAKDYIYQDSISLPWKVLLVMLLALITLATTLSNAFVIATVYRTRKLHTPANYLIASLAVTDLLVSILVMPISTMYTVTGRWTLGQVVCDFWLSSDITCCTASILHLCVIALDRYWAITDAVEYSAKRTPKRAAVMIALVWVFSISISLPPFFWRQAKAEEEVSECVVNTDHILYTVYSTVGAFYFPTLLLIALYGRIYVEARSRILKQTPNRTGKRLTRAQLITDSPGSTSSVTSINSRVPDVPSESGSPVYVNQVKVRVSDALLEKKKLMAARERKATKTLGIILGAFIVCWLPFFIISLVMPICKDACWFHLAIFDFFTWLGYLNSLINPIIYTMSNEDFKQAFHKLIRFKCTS
The assay can be described thus: Serotonin receptor binding, [125I] Cyanopindolol, CHO-K1 membranes. The method, then: as §1

Assay [4] addresses T3, MT-3 receptor (Mesocricetus auratus, UniProt A0ABM2YAB8).
T3 construct: from tissue; host or cells: hamster brain membranes
T3 sequence (A0ABM2YAB8 1-231): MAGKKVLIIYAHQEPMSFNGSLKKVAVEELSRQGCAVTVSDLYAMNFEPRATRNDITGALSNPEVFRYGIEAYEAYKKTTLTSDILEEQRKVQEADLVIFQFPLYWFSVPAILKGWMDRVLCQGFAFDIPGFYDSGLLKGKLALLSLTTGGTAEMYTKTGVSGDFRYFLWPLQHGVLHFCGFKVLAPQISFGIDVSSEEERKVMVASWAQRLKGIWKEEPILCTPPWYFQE
The assay can be described thus: 125I-melatonin binding in hamster brain membranes, MT-3. The settings on record: for inhibition at 10 µM: read-out: MT-3 receptor binding % inhibition by 10 μM. The method, then:
Aliquots of suspended membranes of human recombinant CHP-K1 (Chinese hamster ovary) cells stably expressing human melatonin-1 or melatonin-2 (MT-1 or MT-2) receptors or of hamster brain (MT-3) were incubated at 25° C. with 0.05 nM ^125I-melatonin in buffer (25 mM HEPES, pH 7.4, 5 mM MgCl2, 1 mM CaCl2, 0.5% BSA) or with 0.1 nM for MT-3 alone or in the presence of 1 nM, 10 nM, 0.1 μM, 1 μM and 10 μM of test substances N-[2-(5-methoxy-indol-3-yl)-ethyl]-commenamide, N-[2-(5-methoxy-indol-3-yl)-ethyl]-comanilamide, N-[2-(5-methoxy-indol-3-yl)-ethyl]-coumalylamide, N-[2-(5-methoxy-indol-3-yl)-ethyl]-2-methoxy-commenamide, N-[2-(5-methoxy-indol-3-yl)-ethyl]-chelidonamide, O-[2-(5-methoxy-indol-3-yl)-ethyl]-comenic ester, N-[2-(5-methoxy-indol-3-yl)-ethyl]-2-Pyrone-6-carboxamide and N-[2-(2-bromo-5-methoxy-indol-3-yl)-ethyl]-coumalylamide for 3 hours for MT-1, 4 hours for MT-2 and 30 min for MT-3. The binding reaction was terminated and the membranes were washed with 4 ml of ice-cold HEPES buffer by vacuum filtration. Membranes were then collected, and the filters containing the bound ^125I-melatonin were assayed for the amount of radioactivity in a […]. Non-specific binding was evaluated using a reaction with 1 μM 6-chloromelatonin (MT-1 and MT-2) or 30 μM melatonin (MT-3).

The target in assay [5] is T4, 5-HT7 receptor (Homo sapiens, UniProt P34969).
T4 construct: expressed in transfected cells; host or cells: CHO-K1
T4 sequence (P34969 whole entry): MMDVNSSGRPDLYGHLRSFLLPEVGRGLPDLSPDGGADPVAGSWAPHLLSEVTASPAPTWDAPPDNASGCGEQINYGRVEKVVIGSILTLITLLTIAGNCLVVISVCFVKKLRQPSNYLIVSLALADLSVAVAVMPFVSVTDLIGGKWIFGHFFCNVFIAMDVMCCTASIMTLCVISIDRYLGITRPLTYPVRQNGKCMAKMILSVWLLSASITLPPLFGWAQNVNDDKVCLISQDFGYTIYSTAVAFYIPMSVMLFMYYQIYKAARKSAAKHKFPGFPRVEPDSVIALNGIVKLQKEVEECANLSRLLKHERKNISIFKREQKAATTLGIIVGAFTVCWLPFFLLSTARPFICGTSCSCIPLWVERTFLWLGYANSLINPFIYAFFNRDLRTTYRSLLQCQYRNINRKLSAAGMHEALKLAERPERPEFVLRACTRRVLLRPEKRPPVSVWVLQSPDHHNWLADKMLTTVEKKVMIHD
The assay can be described thus: Serotonin receptor binding, [3H] LSD, CHO-K1 membranes. The method, then:
as §1

The subject of assay [6] is CD1 mice. The experiment in a line: Motimeter assay (motor activity and rearing). It is filed as in vivo. The note with it: 100 mg/kg i.p.; for effect on motor activity and rearing: 30-35 min and 60-65 min after treatment. The method, then:
Mice were starved for 16 hrs before treatment. Male CD1 mice, weighing 25-30 g, were treated intraperitoneally with melatonin, N-[2-(5-methoxy-indol-3-yl)-ethyl]-comanilamide or N-[2-(5-methoxy-indol-3-yl)-ethyl]-commenamide in a dose of 100 mg/kg. The horizontal (i.e. locomotion) and vertical (i.e. rearing) movements were measured for 5 minutes two times, 30 and 60 min after treatment. Eight mice/group were used. The 4-channel activity meter is a square-shaped frame containing transparent infra-red permeable acrylic cages. The frames feature two pairs of light-beam strips for measuring horizontal movements, and two pairs for measuring rearing. Each strip is equipped with 16 infra-red sensors.

Where [7] appears, read: 0.1 nM 125I-melatonin, 30 min, read-out: MT-3 receptor binding IC50.
[8] abbreviates: 0.1 nM 125I-melatonin, 30 min, read-out: MT-3 receptor binding KI.

T1 sequence (P41595 whole entry): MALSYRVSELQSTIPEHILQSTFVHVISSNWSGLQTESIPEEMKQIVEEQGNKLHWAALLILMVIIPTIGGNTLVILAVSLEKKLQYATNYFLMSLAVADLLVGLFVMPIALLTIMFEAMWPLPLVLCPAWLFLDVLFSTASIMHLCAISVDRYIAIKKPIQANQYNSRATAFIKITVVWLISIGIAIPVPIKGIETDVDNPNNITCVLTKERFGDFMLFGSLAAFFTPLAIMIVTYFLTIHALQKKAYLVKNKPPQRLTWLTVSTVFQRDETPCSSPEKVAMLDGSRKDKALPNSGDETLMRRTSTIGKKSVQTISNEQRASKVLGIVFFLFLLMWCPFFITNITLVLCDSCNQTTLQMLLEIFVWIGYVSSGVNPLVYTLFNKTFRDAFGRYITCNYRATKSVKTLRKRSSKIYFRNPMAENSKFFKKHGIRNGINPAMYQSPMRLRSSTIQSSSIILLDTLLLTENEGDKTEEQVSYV

As a reminder, the IC50 is the concentration needed to halve the response being measured. For orientation: Ki means a dissociation constant, usually derived from enzyme kinetics or from competition with a known ligand. As a reminder, the inhibition is the percentage by which the read-out fell short of the control. Regarding `COc1ccc2[nH]cc(CCNC(=O)c3cc(=O)cc(C(=O)O)o3)c2c1` [N-[2-5-methoxy-indol-3-yl)-ethyl]-chelidonamide], the “2-[3H]-deoxy-d-glucose uptake (cpm)” value in assay [1] is 1407 cpm. The IC50 came out at 2100 nM in assay [2] (read-out: 5-HT2B IC50) and 2200 nM in assay [4] (setting [7]). Further, the Ki was found to be 1330 nM in assay [2] (read-out: 5-HT2B KI) and 2200 nM in assay [4] (setting [8]). Moreover, in assay [3], the “affinity to 5-HT1B” value is reported as “moderate affinity”. The inhibition at 10 µM in assay [4] (10 μM, 0.1 nM 125I-melatonin) was found to be 86%.
As for `COc1ccc2[nH]cc(CCNC(=O)c3ccc(=O)oc3)c2c1` [N-[2-(5-methoxy-indol-3-yl)-ethyl]-coumalylamide], the “2-[3H]-deoxy-d-glucose uptake (cpm)” value in assay [1] came to 1494 cpm. Also, the IC50 amounted to 3000 nM in assay [2] (read-out: 5-HT2B IC50), 664 nM in assay [5] (read-out: 5-HT7 IC50), 1640 nM in assay [3] (read-out: 5-HT1B IC50) and 980 nM in assay [4] (setting [7]). In addition, the Ki in assay [2] (read-out: 5-HT2B KI) came to 1910 nM; in assay [5] (read-out: 5-HT7 KI) it was 381 nM; in assay [3] (read-out: 5-HT1B KI), 1550 nM; in assay [4] (setting [8]), 960 nM. In addition, in assay [5], the “affinity to 5-HT7” value was “moderate affinity”. The “affinity to 5-HT1B” value in assay [3] was “moderate affinity”. Also, the “effect on motor activity and rearing” value in assay [6] is “significantly decreased both the motor activity and rearing”. In addition, in assay [6] (30 min, vs vehicle), the “motor activity (horizontal movement) changes (%) 30 min” value is −63.1%. The “motor activity (horizontal movement) 30 min Means ± SE” value in assay [6] (30 min after treatment, 5 min measurement) was determined as 158.8 ± 37.0. Moreover, the “motor activity (horizontal movement) changes (%) 60 min” value in assay [6] (60 min, vs vehicle) is recorded as −80.3%. Moreover, the “motor activity (horizontal movement) 60 min Means ± SE” value in assay [6] (60 min after treatment, 5 min measurement) was found to be 62.3 ± 16.6. Besides, the inhibition at 10 µM in assay [4] (10 μM, 0.1 nM 125I-melatonin) was 95%.
With `COc1ccc2[nH]cc(CCNC(=O)c3cc(=O)c(OC)co3)c2c1` [N-[2-(5-methoxy-indol-3-yl)-ethyl]-2-methoxy-commenamide], the “2-[3H]-deoxy-d-glucose uptake (cpm)” value in assay [1] came out at 1522 cpm. The “affinity to 5-HT2B” value in assay [2] is reported as “moderate affinity”. Besides, the IC50 in assay [2] (read-out: 5-HT2B IC50) turned out to be 1760 nM; in assay [5] (read-out: 5-HT7 IC50) it was 735 nM; in assay [3] (read-out: 5-HT1B IC50) it was 5440 nM; in assay [4] (setting [7]) it was 230 nM. Also, the Ki in assay [2] (read-out: 5-HT2B KI) amounted to 1120 nM; in assay [5] (read-out: 5-HT7 KI), 420 nM; in assay [3] (read-out: 5-HT1B KI), 5160 nM; in assay [4] (setting [8]) it was 220 nM. Further, the “affinity to 5-HT7” value in assay [5] is “moderate affinity”. Also, in assay [4] (10 μM, 0.1 nM 125I-melatonin), the inhibition at 10 µM stood at 99%.
Regarding `COc1ccc2[nH]cc(CCNC(=O)c3cc(=O)c(O)co3)c2c1` [N-[2-(5-methoxy-indol-3-yl)-ethyl]-commenamide], in assay [1], the “2-[3H]-deoxy-d-glucose uptake (cpm)” value worked out at 1530 cpm. In assay [2], the IC50 came out at 2250 nM, affinity was put at a Ki of 1430 nM and the “affinity to 5-HT2B” value is on record as “moderate affinity”. In addition, in assay [5], the IC50 is 230 nM, the Ki is 132 nM and the “affinity to 5-HT7” value is on record as “moderate affinity”. Besides, in assay [3], the IC50 stood at 3910 nM and the Ki was determined as 3710 nM. In assay [6], the “effect on motor activity and rearing” value was “did not change significantly the motor activity and rearing”. In addition, in assay [4], the IC50 came to 800 nM, affinity was put at a Ki of 780 nM, the “affinity to MT-3” value was “high affinity” and the inhibition at 10 µM was found to be 98%.
With `COc1ccc2[nH]cc(CCNC(=O)c3cc(=O)cco3)c2c1` [N-[2-(5-methoxy-indol-3-yl)-ethyl]-comanilamide], in assay [1], the “2-[3H]-deoxy-d-glucose uptake (cpm)” value amounted to 1492 cpm. The values for the IC50 in assay [2] (read-out: 5-HT2B IC50), in assay [3] (read-out: 5-HT1B IC50) and in assay [4] (setting [7]) were 6780 nM, 2140 nM and 310 nM, respectively. The Ki in assay [2] (read-out: 5-HT2B KI) was found to be 4320 nM; in assay [3] (read-out: 5-HT1B KI), 2030 nM; in assay [4] (setting [8]), 300 nM. For the same molecule, the “affinity to 5-HT1B” value in assay [3] is given as “moderate affinity”. The “effect on motor activity and rearing” value in assay [6] is “did not change significantly the motor activity and rearing”. The “affinity to MT-3” value in assay [4] was “high affinity”. The inhibition at 10 µM in assay [4] (10 μM, 0.1 nM 125I-melatonin) was 100%.
